Measurements from ChEMBL document CHEMBL5257066, “The discovery of cyclic γ-AApeptides as the promising ligands targeting EP2” (Bioorg Med Chem Lett, 2023).
The source made the active and inactive calls. No cut-off for these calls is given here.

Columns and labels:
[1] = target: T1, Prostaglandin E2 receptor EP2 subtype (Homo sapiens, UniProt P43116); assay: Binding affinity to human recombinant PTGER2 by high throughput fluorescence polarization assay
[2] = target: T1, Prostaglandin E2 receptor EP2 subtype; assay: Binding affinity to human recombinant PTGER2 assessed as dissociation constant by high throughput fluorescence polarization assay

T1 sequence (P43116 whole entry): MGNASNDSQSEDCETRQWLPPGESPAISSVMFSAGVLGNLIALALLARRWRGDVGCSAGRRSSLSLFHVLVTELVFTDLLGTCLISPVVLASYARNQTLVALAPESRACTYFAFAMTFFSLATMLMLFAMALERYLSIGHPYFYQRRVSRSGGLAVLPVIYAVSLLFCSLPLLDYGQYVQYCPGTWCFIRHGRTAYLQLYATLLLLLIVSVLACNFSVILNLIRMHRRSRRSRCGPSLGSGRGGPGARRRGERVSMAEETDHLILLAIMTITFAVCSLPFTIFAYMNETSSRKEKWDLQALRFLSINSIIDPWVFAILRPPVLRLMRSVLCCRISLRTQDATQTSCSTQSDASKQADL

Activity [1] | Kd [2] [nM] | Compound
Active | – | CC(C)C[C@H]1CN(CC(N)=O)C(=O)CCSCc2ccc(cc2)C(=O)N[C@@H](CCCCN)CN(C(=O)CCc2ccccc2)CC(=O)N[C@@H](CC(C)C)CN(C(=O)CCC2CCCCC2)CC(=O)N[C@@H](Cc2ccccc2)CN(C(=O)Cc2ccc3ccccc3c2)CC(=O)N1
– | 16 | CC(C)C[C@H]1CN(CC(=O)NCCC(=O)N[C@@H](CCCCNC(=S)Nc2ccc(-c3c4ccc(=O)cc-4oc4cc(O)ccc34)c(C(=O)O)c2)C(N)=O)C(=O)CCSCc2ccc(cc2)C(=O)N[C@@H](CCCCN)CN(C(=O)CCc2ccccc2)CC(=O)N[C@@H](CC(C)C)CN(C(=O)CCC2CCCCC2)CC(=O)N[C@@H](Cc2ccccc2)CN(C(=O)Cc2ccc3ccccc3c2)CC(=O)N1
Active | – | CC(C)C[C@H]1CN(CC(N)=O)C(=O)CCSCc2ccc(cc2)C(=O)N[C@@H](CC(C)C)CN(C(=O)CC2CC2)CC(=O)N[C@@H](CCCCN)CN(C(=O)CCc2ccccc2)CC(=O)N[C@@H](Cc2ccccc2)CN(C(=O)CCC2CCCCC2)CC(=O)N1
